For data set [1], the target named is T1, USP7 (Homo sapiens (Human), UniProt Q93009). In words: USP7 fluorescence polarisation (FP) assay with ubiquitin-Lys-TAMRA substrate. The format is biochemical. On the technique in general: Polarisation of emitted light reports the rotation of a fluorescent probe.
In data set [2] the target is T1, USP7. In words: Target engagement assay-HTRF, competition with HA-Ub-VPS probe in HEK293 cells stably expressing Flag-tagged USP7. Conditions: HEK293 stable clone M6C5, 2 h treatment; read-out: Cellular target engagement: HEK293 Stable clone M6C5 USP7 IC50. The format is cell-based. As to the method:
HEK293 cells stably expressing Flag-tagged USP7 were treated with vehicle (DMSO) or compound (using 50 μM starting concentration and 11 dp using 1:3 serial dilution) for 2 h and subsequently lysed on ice and homogenised. Cell lysate and HA-Ub-VPS probe was then added to a white flat bottomed 384 well plate (Greiner) to a total volume of 10 μL and incubated for 40 min. 10 μL of D2 and Tb detection antibodies were subsequently added to give a final assay volume of 20 μL. Following incubation, HTRF were measured using a Pherastar FSX (BMG Labtech) exciting at 337 nm and measuring the emission at 620/665 nm. The HTRF ratiometric signal was derived and subsequently normalised to the lysate only controls. Data were plotted and fitted, and the concentrations resulting in 50% inhibition (IC50) were calculated using the non-linear regression curve fitting model using GraphPad Prism. IC50 values for the inhibitors of the invention are compiled in Table 1 above and represent the average of at least duplicate experiments.
In general terms: TR-FRET usually uses a lanthanide donor and a delayed reading to cut background.

The nature of data set [3]: CLint/CLhep estimates using liver microsomes (dog). The class given is in vitro ADME. As to the method:
(§1) Test compounds (final concentration=1 μM; final DMSO concentration=0.1%) were incubated in 0.1M phosphate buffer pH 7.4 with liver microsomes (human, mouse, rat or dog; 0.5 mg of protein/mL) at 37° C. Reactions were started by addition of NADPH in 0.1M phosphate buffer pH 7.4 (final concentration 1 mM). 40 μL aliquots were removed at 3, 6, 10, 15, 20, 30, 40 and 50 minutes. Reactions were quenched in 80 μL of ice-cold methanol. Samples were subsequently frozen overnight then centrifuged at 3500 rpm for 20 minutes at 4° C. The supernatants were removed and transferred into analytical plates and analysed by LC/MS/MS.
(§2) All samples were analysed on a Waters Acquity I-Class coupled to a Waters Xevo TQD mass spectrometer. A Waters BEH C18 2.1×50 mm 1.7 μm column was used and mobile phases were water and methanol containing 0.1% formic acid as modifier. Analysis was by multiple reaction monitoring and conditions were optimised for each test compound.
(§3) From a plot of In peak area against time, the gradient of the line is determined.
(§4) Subsequently, half-life and intrinsic clearance are calculated using the equations below: […]
(§5) The CLhep was calculated as follows: […]
(§6) Where CLint (mL/min/kg) is the intrinsic clearance scaled to a whole liver and Qh is hepatic liver blood flow.

Data set [4] in a line: Kinetic solubility in PBS buffer. The class given is physicochemical. Conditions: aqueous buffer, kinetic from dmso stock; PBS buffer pH 7.4. As for the experimental part: Test compounds (5 μL; 10 mM DMSO stock) were added to 245 μL of PBS buffer pH 7.4 (Dulbecco A) in a Millipore MultiScreen® Solubility Filter plate and mixed at 300 rpm at room temperature on a plate shaker for 90 minutes. Meanwhile 5-points calibration curves for each compound were established in a mixture of acetonitrile/PBS buffer (top concentration 200 μM). After filtration and matrix match, the calibration and assay plates were analysed on a BMG Labtech CLARIOstar plate reader (240-400 nm). Final concentration of the test compound in the filtrate was calculated using the slope of the calibration curve.

The nature of data set [5]: CLint/CLhep estimates using liver microsomes (rat). The format is in vitro ADME. As for the experimental part: as §1, §2, §3, §4, §5, §6
Data set [6] can be described thus: CLint/CLhep estimates using liver microsomes (mouse). The format is in vitro ADME. As to the method: as §1, §2, §3, §4, §5, §6
Data set [7] can be described thus: CLint/CLhep estimates using liver microsomes (human). The class given is in vitro ADME. As to the method:
as §1, §2, §3, §4, §5, §6

Data set [8] can be described thus: Pharmacokinetic (PK) parameters in mouse. The format is in vivo, BALB/c mouse.
The mark [9] stands for this setting: average of at least duplicate experiments, read-out: Biochemical: USP7 IC50.
Setting [10] is: biochemical inhibition, read-out: USP7 IC50 activity (Table 3a, classes).
Where [11] appears, read: biochemical inhibition, unit not given in Table 3b (Table 1 and key of Table 3a use μM), read-out: USP7 IC50 activity (Table 3b).

The values that follow come from patent publication US20250122223A1, “HETEROCYCLIC COMPOUNDS AS UBIQUITIN SPECIFIC PROTEASE 7 INHIBITORS” (ALMAC DISCOVERY LIMITED, priority 2022, published 2025).

The structures appear in SMILES notation. In brackets after ≈: the same amount, converted by molar mass.

T1 sequence (Q93009 whole entry): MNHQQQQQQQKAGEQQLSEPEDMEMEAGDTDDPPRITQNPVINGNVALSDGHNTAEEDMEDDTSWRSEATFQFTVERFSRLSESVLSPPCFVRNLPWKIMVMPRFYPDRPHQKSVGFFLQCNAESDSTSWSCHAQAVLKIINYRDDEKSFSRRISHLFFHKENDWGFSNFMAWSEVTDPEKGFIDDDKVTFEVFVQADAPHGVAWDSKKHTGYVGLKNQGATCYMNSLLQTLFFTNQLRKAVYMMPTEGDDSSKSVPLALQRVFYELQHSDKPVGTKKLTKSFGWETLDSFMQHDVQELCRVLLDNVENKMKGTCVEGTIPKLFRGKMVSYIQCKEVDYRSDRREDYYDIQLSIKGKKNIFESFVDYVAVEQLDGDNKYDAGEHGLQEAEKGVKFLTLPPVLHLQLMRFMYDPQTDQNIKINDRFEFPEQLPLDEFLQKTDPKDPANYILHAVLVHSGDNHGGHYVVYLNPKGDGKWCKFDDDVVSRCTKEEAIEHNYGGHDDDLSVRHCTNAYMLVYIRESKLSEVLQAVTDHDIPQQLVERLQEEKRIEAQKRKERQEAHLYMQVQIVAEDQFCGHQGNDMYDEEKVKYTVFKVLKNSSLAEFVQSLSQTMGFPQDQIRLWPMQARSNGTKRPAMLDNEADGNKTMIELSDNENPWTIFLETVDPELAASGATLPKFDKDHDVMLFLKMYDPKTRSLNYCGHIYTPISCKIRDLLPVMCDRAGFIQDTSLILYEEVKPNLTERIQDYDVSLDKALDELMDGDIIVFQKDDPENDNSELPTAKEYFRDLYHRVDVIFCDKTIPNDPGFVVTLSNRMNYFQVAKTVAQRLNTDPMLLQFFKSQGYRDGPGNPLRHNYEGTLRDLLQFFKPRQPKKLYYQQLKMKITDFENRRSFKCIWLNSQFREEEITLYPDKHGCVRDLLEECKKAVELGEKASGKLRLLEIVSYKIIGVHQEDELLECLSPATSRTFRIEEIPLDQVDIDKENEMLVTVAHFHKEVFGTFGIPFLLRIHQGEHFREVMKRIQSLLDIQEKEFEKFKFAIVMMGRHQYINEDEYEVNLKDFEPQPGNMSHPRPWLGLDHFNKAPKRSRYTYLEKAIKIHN

`O=C(C[C@H](c1ccccc1)C(F)F)N1CCC(O)(Cn2cnc3c(cc(Cl)n3-c3ccc([C@H]4COCCN4)cc3)c2=O)CC1` (single isomer, unassigned) [Example 82]: the IC50 (usually the point on the concentration scale where inhibition reaches its midpoint) in data set [1] (setting [9]) was 0.006 µM; in data set [1] (setting [10]) it was less than 0.1 µM; in data set [1] (setting [11]) it was 0.006 µM; in data set [2], 9.4 nM.
For the compound `CC[C@H]1CN[C@H](c2ccc(-n3c(Cl)cc4c(=O)n(CC5(O)CCN(C(=O)[C@]6(C)C[C@H]6C(F)(F)F)CC5)cnc43)cc2)CO1` (single isomer, unassigned) [Example 66, 6-Chloro-7-(4-((3R,6S)-6-ethylmorpholin-3-yl)phenyl)-3-((4-hydroxy-1-((1 S,2S)-1-methyl-2-(trifluoromethyl)cyclopropane-1-carbonyl)piperidin-4-yl)methyl)-3,7-dihydro-4H-pyrrolo[2,3-d]pyrimidin-4-one or 6-chloro-7-(4-((3R,6S)-6-ethylmorpholin-3-yl)phenyl)-3-((4-hydroxy-1-((1R,2R)-1-methyl-2-(trifluoromethyl)cyclopropane-1-carbonyl)piperidin-4-yl)methyl)-3,7-dihydro-4H-pyrrolo[2,3-d]pyrimidin-4-one], the concentration for half-maximal inhibition (IC50) is 0.063 µM in data set [1] (setting [9]), less than 0.1 µM in data set [1] (setting [10]), 0.063 µM in data set [1] (setting [11]) and 74 nM in data set [2].
As for `C[C@H]1CN[C@H](c2ccc(-n3c(Cl)cc4c(=O)n(CC5(O)CCN(C(=O)c6ccc(F)cc6)CC5)cnc43)cc2)CO1` [Example 21, 6-Chloro-3-((1-(4-fluorobenzoyl)-4-hydroxypiperidin-4-yl)methyl)-7-(4-((3R,6S)-6-methylmorpholin-3-yl)phenyl)-3,7-dihydro-4H-pyrrolo[2,3-d]pyrimidin-4-one], in data set [3], the “Liver Microsomes: CLhep Dog” value is 4.5 mL/min/kg. For the same compound, in data set [4], the kinetic solubility (usually solubility judged after dilution from a stock solution rather than from solid) at 90 min was found to be 203 µM (≈ 118 µg/mL). The concentration for half-maximal inhibition (IC50) in data set [1] (setting [9]) is 0.11 µM; in data set [1] (setting [10]) it was 0.1 to 0.25 µM; in data set [1] (setting [11]), 0.108 µM; in data set [2], 180 nM. Besides, the “Liver Microsomes: CLhep Rat” value in data set [5] is 6.5 mL/min/kg. Moreover, the “Liver Microsomes: CLhep Mouse” value in data set [6] is 19.1 mL/min/kg. For the same compound, the “Liver Microsomes: CLhep Human” value in data set [7] is 3.2 mL/min/kg. Also, the CLb in data set [8] (BALB/c mouse IV 1 mg/kg) was 35.1 mL/min/kg. Further, the F in data set [8] (BALB/c mouse PO 3 mg/kg) is given as 40.3%. The AUC(0-inf) (usually the area under the concentration-time curve extrapolated to infinity) in data set [8] (blood, BALB/c mouse IV 1 mg/kg) came out at 479 ng·h/mL; in data set [8] (blood, BALB/c mouse PO 3 mg/kg), 593 ng·h/mL. Further, the half-life – broadly, how long it takes for the measured level to halve – in data set [8] (blood, BALB/c mouse IV 1 mg/kg) is 2.09 h. The Vd in data set [8] (blood, BALB/c mouse IV 1 mg/kg, read-out: Vss) stood at 3.89 L/kg.
Turning to `CC1(C(=O)N2CCC(O)(Cn3cnc4c(cc(Cl)n4-c4ccc([C@H]5COCCN5)cc4)c3=O)CC2)CC1C(F)(F)F` (stereo partly drawn) [Example 83, 6-Chloro-3-((4-hydroxy-1-(1-methyl-2-(trifluoromethyl)cyclopropane-1-carbonyl)piperidin-4-yl)methyl)-7-(4-((S)-morpholin-3-yl)phenyl)-3,7-dihydro-4H-pyrrolo[2,3-d]pyrimidin-4-one], the IC50 in data set [1] (setting [9]) was 0.028 µM; in data set [1] (setting [10]), less than 0.1 µM; in data set [1] (setting [11]), 0.028 µM; in data set [2], 76 nM.
With `Cc1cc(-n2c(Cl)cc3c(=O)n(CC4(O)CCN(C(=O)[C@]5(C)C[C@H]5C(F)(F)F)CC4)cnc32)ccc1[C@H]1CO[C@H](C)CN1` (single isomer, unassigned) [Example 62], the 50% inhibitory concentration (IC50) is 0.038 µM in data set [1] (setting [9]), less than 0.1 µM in data set [1] (setting [10]), 0.038 µM in data set [1] (setting [11]) and 100 nM in data set [2].
Turning to `C[C@H]1OCCN[C@@H]1c1ccc(-n2c(Cl)cc3c(=O)n(CC4(O)CCN(C(=O)c5ccc(Cl)cc5)CC4)cnc32)cc1` [Example 8, 6-Chloro-3-((1-(4-chlorobenzoyl)-4-hydroxypiperidin-4-yl)methyl)-7-(4-((2R,3R)-2-methylmorpholin-3-yl)phenyl)-3,7-dihydro-4H-pyrrolo[2,3-d]pyrimidin-4-one], the IC50 is 0.077 µM in data set [1] (setting [9]), less than 0.1 µM in data set [1] (setting [10]), 0.077 µM in data set [1] (setting [11]) and 66 nM in data set [2].
For the compound `Cc1cc(-n2c(Cl)cc3c(=O)n(CC4(O)CCN(C(=O)C[C@H](c5ccccc5)C(F)(F)F)CC4)cnc32)ccc1[C@H]1CO[C@H](C)CN1` [Example 14, 6-Chloro-3-((4-hydroxy-1-((R)-4,4,4-trifluoro-3-phenylbutanoyl)piperidin-4-yl)methyl)-7-(3-methyl-4-((3S,6R)-6-methylmorpholin-3-yl)phenyl)-3,7-dihydro-4H-pyrrolo[2,3-d]pyrimidin-4-one], the half-maximal inhibitory concentration (IC50) was 0.018 µM in data set [1] (setting [9]), less than 0.1 µM in data set [1] (setting [10]), 0.018 µM in data set [1] (setting [11]) and 40 nM in data set [2].
In the case of `CC1(C(=O)N2CCC(O)(Cn3cnc4c(cc(Cl)n4-c4cccc(N5CCOCC5)c4)c3=O)CC2)CC1` [Comparative Example, reference compound], the “Liver Microsomes: CLhep Dog” value in data set [3] is 22.3 mL/min/kg. In addition, the kinetic solubility at 90 min in data set [4] turned out to be 151 µM (≈ 79.4 µg/mL). The IC50 is 0.19 µM in data set [1] (setting [9]) and more than 50000 nM in data set [2]. For the same compound, the “Liver Microsomes: CLhep Rat” value in data set [5] was 27 mL/min/kg. Moreover, the “Liver Microsomes: CLhep Mouse” value in data set [6] is reported as 63.9 mL/min/kg. Further, the “Liver Microsomes: CLhep Human” value in data set [7] is on record as 14.5 mL/min/kg.
Consider `C[C@H]1CN[C@H](c2ccc(-n3c(Cl)cc4c(=O)n(CC5(O)CCN(C(=O)CCC6CC6)CC5)cnc43)cc2)CO1` [Example 103, 6-Chloro-3-((1-(3-cyclopropylpropanoyl)-4-hydroxypiperidin-4-yl)methyl)-7-(4-((3R,6S)-6-methylmorpholin-3-yl)phenyl)-3,7-dihydro-4H-pyrrolo[2,3-d]pyrimidin-4-one], for which the figures for the half-inhibitory concentration (IC50) in data set [1] (setting [10]) and in data set [1] (setting [11]) were 0.1 to 0.25 µM and 0.211 µM, respectively.
For `O=C(c1ccc(Cl)cc1)N1CCC(O)(Cn2cnc3c(cc(Cl)n3-c3ccc([C@@H]4COC5(CCC5)CN4)cc3)c2=O)CC1` (racemic) [Example 44, 7-(4-(5-Oxa-8-azaspiro[3.5]nonan-7-yl)phenyl)-6-chloro-3-((1-(4-chlorobenzoyl)-4-hydroxypiperidin-4-yl)methyl)-3,7-dihydro-4H-pyrrolo[2,3-d]pyrimidin-4-one], the IC50 in data set [1] (setting [10]) was 0.1 to 0.25 µM; in data set [1] (setting [11]) it was 0.113 µM.
Regarding `Cc1ccc(C(=O)N2CCC(O)(Cn3cnc4c(cc(Cl)n4-c4ccc([C@@H]5CO[C@@H](C)CN5)cc4)c3=O)CC2)c(C)c1` [Example 59, 6-Chloro-3-((1-(2,4-dimethylbenzoyl)-4-hydroxypiperidin-4-yl)methyl)-7-(4-((3R,6S)-6-methylmorpholin-3-yl)phenyl)-3,7-dihydro-4H-pyrrolo[2,3-d]pyrimidin-4-one], the IC50 was 0.25 to 2 µM in data set [1] (setting [10]) and 0.545 µM in data set [1] (setting [11]).
